Test results from ChEMBL document CHEMBL5104141, “Discovery and antiviral profile of new sulfamoylbenzamide derivatives as HBV capsid assembly modulators” (Bioorg Med Chem Lett, 2022).
Converted amounts (≈) assume the structure as drawn.

Tests used:
[1] = biological target: Core antigen (Hepatitis B virus) (UniProt Q03732); experiment: Modulation of capsid assembly in HBV infected in human HePAD38 cells assessed as inhibition of viral DNA replication measured after 96 hrs by qPCR analysis; assay type: cell-based; conditions: filed as modulator
Chain of Core antigen (Hepatitis B virus) (Q03732 as listed by the source): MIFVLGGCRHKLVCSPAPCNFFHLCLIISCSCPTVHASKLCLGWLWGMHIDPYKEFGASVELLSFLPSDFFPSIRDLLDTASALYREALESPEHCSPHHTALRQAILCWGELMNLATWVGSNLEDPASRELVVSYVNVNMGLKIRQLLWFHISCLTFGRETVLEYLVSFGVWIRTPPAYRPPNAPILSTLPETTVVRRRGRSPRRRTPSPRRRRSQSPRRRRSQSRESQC

Cytochrome P450 3A4 = Cytochrome P450 3A4 (Homo sapiens, UniProt P08684); experiment: Inhibition of CYP3A4 (unknown origin); assay type: ADME
Chain of Cytochrome P450 3A4 (P08684 whole entry): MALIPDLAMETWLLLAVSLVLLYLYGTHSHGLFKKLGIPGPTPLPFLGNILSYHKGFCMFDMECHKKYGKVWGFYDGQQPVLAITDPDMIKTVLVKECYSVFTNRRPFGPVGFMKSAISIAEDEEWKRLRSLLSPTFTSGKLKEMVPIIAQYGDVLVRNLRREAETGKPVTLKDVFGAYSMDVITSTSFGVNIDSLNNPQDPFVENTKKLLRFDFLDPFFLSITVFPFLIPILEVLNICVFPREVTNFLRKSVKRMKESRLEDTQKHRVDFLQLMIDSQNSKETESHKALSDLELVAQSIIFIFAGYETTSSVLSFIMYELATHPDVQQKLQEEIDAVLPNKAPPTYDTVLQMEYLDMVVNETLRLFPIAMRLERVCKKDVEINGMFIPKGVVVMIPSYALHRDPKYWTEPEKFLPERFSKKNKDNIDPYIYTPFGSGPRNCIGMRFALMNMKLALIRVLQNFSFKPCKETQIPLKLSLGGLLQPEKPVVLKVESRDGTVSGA

[2] = Ratio of EC50 for antiviral activity against HBV harboring core protein V124G mutant to EC50 for antiviral activity against HBV harboring wild type core protein; assay type: functional, Hepatitis B virus
[3] = Mutagenicity in Escherichia coli upto 1250 ug/plate in presence of S9 fraction by Ames test; assay type: toxicity, subcellular; conditions: dose < 1250 µg
[4] = Half life in C57BL/6 mouse at 2 mg/kg, iv; assay type: ADME, organism-based; conditions: in vivo
[5] = biological target: Voltage-gated inwardly rectifying potassium channel KCNH2 (Homo sapiens, UniProt Q12809); experiment: Inhibition of hERG; assay type: toxicity
Chain of Voltage-gated inwardly rectifying potassium channel KCNH2 (Q12809 whole entry): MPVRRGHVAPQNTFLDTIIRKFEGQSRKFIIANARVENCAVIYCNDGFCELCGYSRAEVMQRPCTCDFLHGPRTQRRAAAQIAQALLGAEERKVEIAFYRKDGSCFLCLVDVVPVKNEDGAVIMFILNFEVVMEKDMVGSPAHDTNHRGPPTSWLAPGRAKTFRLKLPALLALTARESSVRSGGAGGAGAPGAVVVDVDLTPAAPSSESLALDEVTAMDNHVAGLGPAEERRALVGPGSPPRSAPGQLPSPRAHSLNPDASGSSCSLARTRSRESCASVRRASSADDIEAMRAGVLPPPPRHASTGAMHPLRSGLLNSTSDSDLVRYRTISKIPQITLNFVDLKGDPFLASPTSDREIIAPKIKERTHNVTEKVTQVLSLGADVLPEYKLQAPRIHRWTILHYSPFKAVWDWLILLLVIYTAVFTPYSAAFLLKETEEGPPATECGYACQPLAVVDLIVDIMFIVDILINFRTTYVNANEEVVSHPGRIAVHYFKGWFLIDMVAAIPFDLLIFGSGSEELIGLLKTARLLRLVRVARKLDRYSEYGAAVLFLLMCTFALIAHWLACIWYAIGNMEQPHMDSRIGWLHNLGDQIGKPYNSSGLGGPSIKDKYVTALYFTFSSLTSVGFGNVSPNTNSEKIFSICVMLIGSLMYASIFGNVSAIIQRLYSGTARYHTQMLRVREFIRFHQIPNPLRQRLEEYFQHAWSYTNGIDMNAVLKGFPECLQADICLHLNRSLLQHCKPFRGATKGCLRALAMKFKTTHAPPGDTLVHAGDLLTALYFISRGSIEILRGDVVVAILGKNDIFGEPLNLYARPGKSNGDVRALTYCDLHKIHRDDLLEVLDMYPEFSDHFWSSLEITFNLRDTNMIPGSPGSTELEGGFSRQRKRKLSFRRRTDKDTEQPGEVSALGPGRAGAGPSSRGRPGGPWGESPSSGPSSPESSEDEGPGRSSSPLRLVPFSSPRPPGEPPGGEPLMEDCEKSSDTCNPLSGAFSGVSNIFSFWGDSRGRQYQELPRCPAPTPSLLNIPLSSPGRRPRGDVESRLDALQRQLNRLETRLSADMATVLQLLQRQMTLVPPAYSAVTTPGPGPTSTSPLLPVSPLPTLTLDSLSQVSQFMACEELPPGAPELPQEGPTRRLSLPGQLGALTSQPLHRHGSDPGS

[6] = Mutagenicity in Salmonella typhimurium upto 1250 ug/plate in presence of S9 fraction by Ames test; assay type: toxicity, subcellular; conditions: salmonella enterica subsp. enterica serovar typhimurium, dose < 1250 µg
[7] = Ratio of EC50 for antiviral activity against HBV harboring core protein F110I mutant to EC50 for antiviral activity against HBV harboring wild type core protein; assay type: functional, Hepatitis B virus
[8] = Toxicity in HBV transgenic mouse assessed as liver damage at 25 to 75 mg/kg, po BID for 3 days; assay type: organism-based; conditions: in vivo, 72 h, dose 25-75 mg/kg, time 3 day
[9] = Ratio of EC50 for antiviral activity against HBV harboring core protein Y118F mutant to EC50 for antiviral activity against HBV harboring wild type core protein; assay type: functional, Hepatitis B virus
[10] = Metabolic stability of the compound in mouse hepatocytes assessed as parent compound remaining measured after 4 hrs; assay type: ADME, cell-based, Hepatocyte; conditions: read-out: Stability
[11] = Volume of distribution in C57BL/6 mouse at 2 mg/kg, iv; assay type: ADME, organism-based; conditions: in vivo
Hepatitis B virus [12] = experiment: Antiviral activity against HBV in HBV transgenic mouse assessed as inhibition of viral replication by measuring reduction of serum HBV DNA content administered orally BID for 3 days; assay type: functional, organism-based; conditions: dose 25-75 mg/kg, route po, time 3.0 day, DDE = dose-dependent effect
Cytochrome P450 2D6 = Cytochrome P450 2D6 (Homo sapiens, UniProt P10635); experiment: Inhibition of CYP2D6 (unknown origin); assay type: ADME
Chain of Cytochrome P450 2D6 (P10635 whole entry): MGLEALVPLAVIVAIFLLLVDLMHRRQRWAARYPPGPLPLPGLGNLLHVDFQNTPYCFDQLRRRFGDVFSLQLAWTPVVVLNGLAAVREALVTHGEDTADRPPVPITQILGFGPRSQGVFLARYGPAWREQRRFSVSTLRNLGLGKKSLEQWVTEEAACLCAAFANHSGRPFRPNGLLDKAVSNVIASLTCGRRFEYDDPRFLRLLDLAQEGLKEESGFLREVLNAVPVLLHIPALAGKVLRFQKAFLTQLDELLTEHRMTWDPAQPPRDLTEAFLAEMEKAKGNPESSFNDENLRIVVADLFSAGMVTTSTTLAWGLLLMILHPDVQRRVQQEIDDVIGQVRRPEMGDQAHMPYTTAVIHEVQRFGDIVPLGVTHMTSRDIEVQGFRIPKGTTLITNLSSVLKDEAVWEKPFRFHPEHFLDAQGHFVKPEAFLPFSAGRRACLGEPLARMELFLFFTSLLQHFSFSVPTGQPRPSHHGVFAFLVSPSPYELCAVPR

HepG2 2.2.15 = experiment: Cytotoxicity against human HepG2.2.15 cells up to 10 uM by CellTiter-Blue assay; assay type: toxicity, cell-based; conditions: hepg2 2.2.15, 10 µM
[13] = Mutagenicity in Escherichia coli upto 1250 ug/plate in absence of S9 fraction by Ames test; assay type: toxicity; conditions: dose < 1250 µg
Hepatitis B virus [14] = experiment: Antiviral activity against HBV in HBV transgenic mouse assessed as inhibition of viral replication by measuring log reduction of serum HBV DNA content at 25 mg/kg, po BID for 3 days; assay type: functional; conditions: time 3 day
[15] = Ratio of EC50 for antiviral activity against HBV harboring core protein T33N mutant to EC50 for antiviral activity against HBV harboring wild type core protein; assay type: functional, Hepatitis B virus
[16] = Mutagenicity in Salmonella typhimurium upto 1250 ug/plate in absence of S9 fraction by Ames test; assay type: toxicity; conditions: salmonella enterica subsp. enterica serovar typhimurium, dose < 1250 µg
[17] = Cmax in C57BL/6 mouse at 5 mg/kg, po; assay type: ADME, organism-based; design: dose 5 mg/kg, route po; conditions: in vivo
[18] = Kinetic solubility of the compound at pH 7.4; assay type: physicochemical; conditions: buffer, read-out: Kinetic_solubility
[19] = Cytotoxicity against human HePAD38 cells up to 10 uM by CellTiter-Blue assay; assay type: toxicity, cell-based; conditions: hepad38, 10 µM
[20] = Ratio of EC50 for antiviral activity against HBV harboring core protein T128I mutant to EC50 for antiviral activity against HBV harboring wild type core protein; assay type: functional, Hepatitis B virus
Hepatitis B virus [21] = experiment: Antiviral activity against HBV in HBV transgenic mouse assessed as inhibition of viral replication by measuring reduction of serum HBV DNA content at 25 to 75 mg/kg, po BID for 3 days; assay type: functional, organism-based; conditions: dose 25-75 mg/kg, time 3.0 day, TDE = time-dependent effect
[22] = Metabolic stability of the compound in human hepatocytes assessed as parent compound remaining measured after 4 hrs; assay type: ADME, cell-based, Hepatocyte; conditions: read-out: Stability
[23] = AUC in C57BL/6 mouse at 5 mg/kg, po and 2 mg/kg, iv; assay type: ADME, organism-based; design: dose 5 mg/kg, route po; conditions: in vivo
[24] = biological target: Core antigen (Hepatitis B virus) (UniProt Q03732); experiment: Modulation of capsid assembly in HBV infected in human HePAD38 cells assessed as fold shift in inhibition of viral DNA replication in presence of 40% normal human serum measured after 96 hrs by qPCR analysis; assay type: cell-based; conditions: filed as modulator
[25] = Ratio of EC50 for antiviral activity against HBV harboring core protein I105T mutant to EC50 for antiviral activity against HBV harboring wild type core protein; assay type: functional, Hepatitis B virus
[26] = Ratio of EC50 for antiviral activity against HBV harboring core protein F23Y mutant to EC50 for antiviral activity against HBV harboring wild type core protein; assay type: functional, Hepatitis B virus
Hepatitis B virus [27] = experiment: Antiviral activity against HBV in HBV transgenic mouse assessed as inhibition of viral replication by measuring log reduction of serum HBV DNA content at 75 mg/kg, po BID for 3 days; assay type: functional; conditions: time 3 day
[28] = Ratio of EC50 for antiviral activity against HBV harboring core protein T33P mutant to EC50 for antiviral activity against HBV harboring wild type core protein; assay type: functional, Hepatitis B virus
[29] = Ratio of EC50 for antiviral activity against HBV harboring core protein L37Q mutant to EC50 for antiviral activity against HBV harboring wild type core protein; assay type: functional, Hepatitis B virus
[30] = Plasma clearance in C57BL/6 mouse at 2 mg/kg, iv; assay type: ADME, organism-based
Cytochrome P450 1A2 = biological target: T1, Cytochrome P450 1A2 (Homo sapiens, UniProt P05177); experiment: Inhibition of CYP1A2 (unknown origin); assay type: ADME
T1 sequence (P05177 whole entry): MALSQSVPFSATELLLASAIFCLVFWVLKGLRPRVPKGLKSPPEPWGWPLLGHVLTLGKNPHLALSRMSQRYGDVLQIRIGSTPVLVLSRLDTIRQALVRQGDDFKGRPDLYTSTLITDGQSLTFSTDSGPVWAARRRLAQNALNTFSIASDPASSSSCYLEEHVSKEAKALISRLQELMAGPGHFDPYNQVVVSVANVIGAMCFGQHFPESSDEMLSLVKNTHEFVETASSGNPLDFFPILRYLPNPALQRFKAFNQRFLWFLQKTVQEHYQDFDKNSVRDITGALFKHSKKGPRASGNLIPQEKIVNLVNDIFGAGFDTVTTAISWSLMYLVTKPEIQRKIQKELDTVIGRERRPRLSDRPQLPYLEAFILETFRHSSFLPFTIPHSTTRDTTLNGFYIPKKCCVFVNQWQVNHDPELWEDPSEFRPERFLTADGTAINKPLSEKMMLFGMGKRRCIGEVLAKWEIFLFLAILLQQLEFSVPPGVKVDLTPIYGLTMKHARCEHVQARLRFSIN

[31] = Oral bioavailability in C57BL/6 mouse at 5 mg/kg; assay type: ADME, organism-based; conditions: in vivo
Hepatitis B virus [32] = experiment: Antiviral activity against HBV in HBV transgenic mouse assessed as inhibition of viral replication by measuring fold reduction of serum HBV DNA content at 75 mg/kg, po BID for 3 days relative to control; assay type: functional; conditions: time 3 day
[33] = Ratio of drug concentration in liver to blood in C57BL/6 mouse at 5 mg/kg, po measured after 4 hrs; assay type: ADME, organism-based
Hepatitis B virus [34] = experiment: Antiviral activity against HBV in HBV transgenic mouse assessed as inhibition of viral replication by measuring fold reduction of serum HBV DNA content at 25 mg/kg, po BID for 3 days relative to control; assay type: functional; conditions: time 3 day

Nc1ccc(C(=O)Nc2cc(F)c(F)c(F)c2)cc1S(N)(=O)=O
EC90 [1]: 0.49 µM

Nc1ccc(C(=O)Nc2ccc(F)c(C(F)F)c2)cc1S(N)(=O)=O
EC90 [1]: 0.48 µM

Cc1cc(C(=O)Nc2cc(F)c(F)c(F)c2)cc(S(N)(=O)=O)c1N
EC90 [1]: 1.54 µM

Nc1cc(Cl)c(C(=O)Nc2cc(F)c(F)c(F)c2)cc1S(N)(=O)=O
EC90 [1]: 1.24 µM

Nc1ccc(C(=O)Nc2ccc(F)c(Cl)c2)cc1S(N)(=O)=O
EC90 [1]: 0.36 µM

Cc1cc(N)c(S(N)(=O)=O)cc1C(=O)Nc1ccc(F)c(C#N)c1
EC90 [1]: 1.21 µM

Cc1cc(N)c(S(N)(=O)=O)cc1C(=O)Nc1ccc(F)c(Cl)c1
EC90 [1]: 0.39 µM

CNc1ccc(C(=O)Nc2cc(F)c(F)c(F)c2)cc1S(N)(=O)=O
EC90 [1]: 20.9 µM

Cc1cc(NC(=O)c2ccc(N)c(S(N)(=O)=O)c2)ccc1F
EC90 [1]: 0.7 µM

Nc1cc(Br)c(C(=O)Nc2cc(F)c(F)c(F)c2)cc1S(N)(=O)=O
EC90 [1]: 2.78 µM

NS(=O)(=O)c1cc(C(=O)Nc2cc(F)c(F)c(F)c2)ccc1F
EC90 [1]: 8.13 µM

Nc1cc(F)c(C(=O)Nc2cc(F)c(F)c(F)c2)cc1S(N)(=O)=O
EC90 [1]: 1.09 µM

Nc1ccc(C(=O)Nc2ccc(F)c(C(F)(F)F)c2)cc1S(N)(=O)=O
EC90 [1]: 3.65 µM

Cc1cc(NC(=O)c2cc(S(N)(=O)=O)c(N)cc2C)ccc1F
EC90 [1]: 0.39 µM

Cc1cc(N)c(S(N)(=O)=O)cc1C(=O)Nc1ccc(F)c(C(F)(F)F)c1
EC90 [1]: 2.63 µM

Cc1cc(N)c(S(N)(=O)=O)cc1C(=O)Nc1cc(F)c(F)c(F)c1
IC50 (Cytochrome P450 3A4): > 30 µM
Ratio EC50 [2]: 3.1
Activity [3]: Non-Toxic
half-life [4]: 3.2 h
IC50 [5]: > 30 µM
Activity [6]: Non-Toxic
Ratio EC50 [7]: 3.1
Activity [8]: Non-Toxic
Ratio EC50 [9]: 3.1
remaining at 4 h [10]: 100%
Vd [11]: 2.3 L/kg
Activity (Hepatitis B virus [12]): Dde
IC50 (Cytochrome P450 2D6): > 15 µM
Activity (HepG2 2.2.15): Non-Toxic
Activity [13]: Non-Toxic
log(activity) (Hepatitis B virus [14]): 1.18
Ratio EC50 [15]: 3.1
Activity [16]: Non-Toxic
Cmax [17]: 3.6 µM
solubility kinetic [18]: 29.2 µM (≈ 10.5 µg/mL)
EC90 [1]: 0.26 µM
Activity [19]: Non-Toxic
Ratio EC50 [20]: 3.1
Activity (Hepatitis B virus [21]): Tde
remaining at 4 h [22]: 90%
AUC [23]: 33 µM·h
fold change (FC) [24]: 16.9
Ratio EC50 [25]: 3.1
Ratio EC50 [26]: 3.1
log(activity) (Hepatitis B virus [27]): 1.68
Ratio EC50 [28]: 3.1
Ratio EC50 [29]: 3.1
clearance [30]: 8 mL/min/kg
IC50 (Cytochrome P450 1A2): 12.4 µM
bioavailability [31]: 114%
fold change (FC) (Hepatitis B virus [32]): 48.3
Kp at 4 h [33]: 10
fold change (FC) (Hepatitis B virus [34]): 15.2

N#Cc1cc(NC(=O)c2ccc(N)c(S(N)(=O)=O)c2)ccc1F
EC90 [1]: 2.53 µM

Cc1cc(N)c(S(N)(=O)=O)cc1C(=O)Nc1ccc(F)c(C(F)F)c1
EC90 [1]: 0.66 µM

O=C(Nc1cc(F)c(F)c(F)c1)c1ccc(F)c(S(=O)(=O)N2CCC(O)CC2)c1
EC90 [1]: 1.13 µM
